Blank lines part the entries; values can stand above or below the compound they belong to.
Experiments:
[1] = Drug concentration in brain of mouse at 400 mg/kg, po qd; type: ADME, organism-based; details: in vivo, read-out: Ct
[2] = Cmax in rat at 3 mg/kg, iv; type: ADME, organism-based; set-up: dose 3 mg/kg, route iv; details: in vivo
[3] = Induction of mitophagy in human HeLa cells; type: functional, cell-based
[4] = Efflux ratio in dog MDCK-MDR1 cells; type: ADME, cell-based, Canis lupus familiaris
hERG (KCNH2) = hERG (KCNH2) (Homo sapiens, UniProt Q12809); experiment: Inhibition of hERG at 30 uM relative to control; type: toxicity
[5] = Ratio of drug level in brain to blood in BALB/c mouse at 5 mg/kg, po; type: ADME, organism-based
[6] = Cmax in human CSF at 1000 mg, po bid administered for 8 weeks; type: ADME, organism-based, Cerebrospinal fluid; set-up: dose 1000 mg, time 8 weeks, route po
[7] = Cmax in human CSF at 500 mg, po qd administered for 8 weeks; type: ADME, organism-based, Cerebrospinal fluid; set-up: time 8 weeks, dose 500 mg, route po

Sequence of hERG (KCNH2) (Q12809 whole entry): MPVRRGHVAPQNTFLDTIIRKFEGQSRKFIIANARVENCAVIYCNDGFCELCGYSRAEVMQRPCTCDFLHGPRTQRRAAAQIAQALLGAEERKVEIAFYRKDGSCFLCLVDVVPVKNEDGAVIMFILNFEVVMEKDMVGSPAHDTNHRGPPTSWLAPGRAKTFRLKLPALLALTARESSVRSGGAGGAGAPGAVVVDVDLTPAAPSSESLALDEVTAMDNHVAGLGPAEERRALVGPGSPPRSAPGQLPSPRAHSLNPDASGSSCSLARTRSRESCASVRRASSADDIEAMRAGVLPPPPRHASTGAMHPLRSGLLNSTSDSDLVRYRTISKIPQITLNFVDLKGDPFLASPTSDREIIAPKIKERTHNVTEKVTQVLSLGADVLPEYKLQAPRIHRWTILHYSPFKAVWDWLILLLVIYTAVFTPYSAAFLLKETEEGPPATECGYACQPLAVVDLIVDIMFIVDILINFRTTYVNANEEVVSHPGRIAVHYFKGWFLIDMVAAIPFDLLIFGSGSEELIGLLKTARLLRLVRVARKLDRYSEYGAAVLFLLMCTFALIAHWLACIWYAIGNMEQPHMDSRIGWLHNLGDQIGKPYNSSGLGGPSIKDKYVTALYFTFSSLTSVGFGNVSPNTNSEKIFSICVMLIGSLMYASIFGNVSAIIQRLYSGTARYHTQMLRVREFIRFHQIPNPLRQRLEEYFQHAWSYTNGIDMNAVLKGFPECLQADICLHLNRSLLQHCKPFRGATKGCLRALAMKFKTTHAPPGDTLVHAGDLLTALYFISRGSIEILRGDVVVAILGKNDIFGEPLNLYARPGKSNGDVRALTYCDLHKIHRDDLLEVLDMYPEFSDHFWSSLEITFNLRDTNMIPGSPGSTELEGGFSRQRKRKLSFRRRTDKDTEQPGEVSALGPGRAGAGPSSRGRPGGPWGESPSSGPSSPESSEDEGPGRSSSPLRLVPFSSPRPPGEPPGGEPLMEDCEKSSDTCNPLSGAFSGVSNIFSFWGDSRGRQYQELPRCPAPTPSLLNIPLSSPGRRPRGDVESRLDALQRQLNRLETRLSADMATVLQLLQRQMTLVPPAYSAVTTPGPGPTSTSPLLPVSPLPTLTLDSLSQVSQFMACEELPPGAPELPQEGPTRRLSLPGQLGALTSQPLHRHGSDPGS

SMILES: c1coc(CNc2ncnc3[nH]cnc23)c1 [KINETIN]
concentration [1]: 2970 nM

SMILES: FC(F)(F)c1cc2c(NC3CCCc4ccccc43)ncnc2[nH]1 (stereo not drawn)
EC50 [3]: 440 nM

SMILES: CO[C@H]1C[C@@H]2CC[C@@H](C)[C@@](O)(O2)C(=O)C(=O)N2CCCC[C@H]2C(=O)O[C@H]([C@H](C)C[C@@H]2CC[C@@H](OCCO)[C@H](OC)C2)CC(=O)[C@H](C)/C=C(\C)[C@@H](O)[C@@H](OC)C(=O)[C@H](C)C[C@H](C)/C=C/C=C/C=C/1C [EVEROLIMUS]
Kp [5]: 0.015

SMILES: CN(C)C(=N)N=C(N)N [METFORMIN]
Cmax [6]: 741 nM
Cmax [7]: 741 nM

Further lines, with some results ahead:

Cmax [2]: 2960 nM
SMILES: CN(CCOc1ccc(CC2SC(=O)NC2=O)cc1)c1ccccn1 (stereo not drawn) [ROSIGLITAZONE]

efflux ratio [4]: 23
SMILES: C[C@@H]1C[C@@H](NC(=O)c2ncc(-c3cccc(C#N)c3)o2)CN1C#N
inhibition at 30 µM (hERG (KCNH2)): 30.2%

Reference: ChEMBL document CHEMBL5223066, “The medicinal chemistry of mitochondrial dysfunction: a critical overview of efforts to modulate mitochondrial health” (RSC Med Chem, 2021)
